Measured values: PMC5302928, “[^64Cu]XYIMSR-06: A dual-motif CAIX ligand for PET imaging of clear cell renal cell carcinoma” (Oncotarget, 2016)
Several values for one entry are separate records, joined by “and”; a condition that tells them apart may be missing. Identical values can stand only once.

Assays:
[1] = In vivo metabolism study, plasma radio-TLC; set-up: species or system NSG mice; conditions: for Percentage of intact radiotracer in plasma: 7.4 MBq i.v.
Method: PET acquisition times were: 5 min/bed (1 h) post-injection were developed using a mobile phase consisting of 45% of [Al18F]XYIMSR-04. PET images were co-registered acetonitrile, 55% water and 0.1% trifluoroacetic acid. The with the corresponding 360-slice CT images. Imaging TLC plate was dried and exposed to Kodak Biomax x-ray datasets were reconstructed using the 3D-FORE/2D-OSEM film (Fisher Scientific). Standard solutions had Rf value of iterative algorithm with 2 iterations and 16 subsets, using 0.6. The intensity of bans on the film were calculated with the manufacturer ’s software. Display of images utilized the Image J software (NIH, Bethesda, MD). The percentages Amide software (Dice Holdings, Inc. NY). The 1 h image of intact [64Cu]XYIMSR-06 in plasma were 86.2%, 98.3, is shown below (Supplementary Figure S2): and 100% for 0.5h, 1h, and 2h plasma samples, respectively.
Metabolism study REFERENCES
In vivo metabolism of [64Cu]XYIMSR-06 in NSG 1. Wichert M, Krall N, Decurtins W, Franzini RM, Pretto mice intravenously (tail vein) with 7.4 MBq (200 μCi) F, Schneider P, Neri D, Scheuermann J. Dual-display of [64Cu]XYIMSR-06 in 200 µL of PBS (pH = 7.0). One of small molecules enables the discovery of ligand pairs mouse was euthanized at 0.5, 1, and 2hr time points and facilitates affinity maturation. Nature chemistry. plasma was prepared by centrifugation of whole blood 2015;7:241-9. for 15 minutes at 2,500xg at 4°C. 5 uL of the plasma 2. D’Souza CA, McBride WJ, Sharkey RM, Todaro LJ, samples and control (7.4 kBq of [64Cu]XYIMSR-06) were Goldenberg DM. High-yielding aqueous 18F-labeling of spotted onto silica gel 60 RP-18 F254S glass TLC plates peptides via Al18F chelation. Bioconjugate chemistry.
(EMD Millipore Corp., Billerica, MA) and the plates 2011;22:1793-803. […]

[2] = tested on: CAIX-expressing SK-RC-52 ccRCC tumor xenografts; assay: Biodistribution of [^64Cu]XYIMSR-06 in mice bearing SK-RC-52 xenografts; type: in vivo
Method: Animal experiments were performed in accordance with protocols approved by the Johns Hopkins Animal Care and Use Committee (ACUC). Six-week-old female NOD/SCID mice were purchased from the Animal Resource Core of the Sidney Kimmel Comprehensive Cancer Center of Johns Hopkins and were subcutaneously injected in the upper right flank with 1 × 10^6 SK-RC-52 cells in RPMI 1640 GlutaMAX™ media (Life Technologies, Frederick, MD) supplemented with 1% fetal bovine serum (FBS). Mice were monitored for tumor size and used for PET/CT imaging when the size of the tumor reached 100 mm^3.
Mice bearing SK-RC-52 xenografts within the upper right flank were injected intravenously with 740 kBq (20 μCi) of [^64Cu]XYIMSR-06 in 200 μL of PBS. For in vivo competition (binding specificity) studies, tumor-bearing mice were injected with 740 kBq (20 μCi) of [^64Cu]XYIMSR-06 and 200 nmole of 1 in 200 μL of PBS concurrently. At specific times after injection (1 h, 4 h, 8 h and 24 h), mice (n = 5) were sacrificed by cervical dislocation with blood immediately collected by cardiac puncture. Heart, lungs, pancreas, spleen, fat, brain, muscle, small intestines, liver, stomach, kidney, urinary bladder, and tumor were also collected. Each organ was weighed and the tissue radioactivity was measured with an automated gamma counter (1282 Compugamma CS, Pharmacia/ LKBNuclear, Inc., Mt. Waverly, Vic. Australia). The percentage of injected dose per gram of tissue (%ID/g) was calculated by comparison with samples of a standard dilution of the initial dose. All measurements were corrected for radioactive decay. Data are expressed as mean ± standard deviation (SD).

[3] = 8 h+Block (co-injected 200 nmole of 1)
[4] = 24 h+Block (co-injected 200 nmole of 1)
[5] = one phase exponential decay fit

CC(CCC(=O)NC(CC(=O)NC(CC(=O)NC(CCCCn1cc(CCCC(=O)Nc2nnc(S(N)(=O)=O)s2)nn1)C(=O)NCCOCCOCCNC(=S)Nc1ccc(CC2CN(CC(=O)O)CCN(CC(=O)[O-])CCN2CC(=O)[O-])cc1)C(=O)O)C(=O)O)(c1ccc(O)cc1)c1ccc(O)cc1.[64Cu+2] (stereo not shown) [[^64Cu]XYIMSR-06]
Percentage of intact radiotracer in plasma ([1]; 0.5h plasma sample): 86.2% | Percentage of intact radiotracer in plasma ([1]; 1h plasma sample): 98.3% | Percentage of intact radiotracer in plasma ([1]; 2h plasma sample): 100% | In vivo stability by blood metabolites (radio thin layer chromatography) ([1]; post-injection): stable up to 2 h post-injection | Bladder uptake ([2]; 1 h): 11.12±6.33 %ID/g | Blood uptake ([2]; 1 h): 0.66±0.05 %ID/g | Brain uptake ([2]; 1 h): 1.46±2.23 %ID/g | Fat uptake ([2]; 1 h): 0.80±0.17 %ID/g | Heart uptake ([2]; 1 h): 3.41±0.79 %ID/g | Kidney (kid) uptake ([2]; 1 h): 33.65±3.91 %ID/g | Liver uptake ([2]; 1 h): 3.25±0.97 %ID/g | Lung uptake ([2]; 1 h): 25.52±3.35 %ID/g | Muscle (mm) uptake ([2]; 1 h): 1.28±0.27 %ID/g | Pancreas uptake ([2]; 1 h): 2.94±0.24 %ID/g | Sm. intestine uptake ([2]; 1 h): 7.35±0.78 %ID/g | Spleen uptake ([2]; 1 h): 0.36±0.08 %ID/g | Stomach uptake ([2]; 1 h): 14.80±2.27 %ID/g | Tumor uptake ([2]; 1 h): 14.5 %ID/g and 14.47±2.69 %ID/g | Tumor/kid (kidney) ratio ([2]; 1 h): 0.4±0.1 | Tumor/mm (muscle) ratio ([2]; 1 h): 10.8±3.7 | Bladder uptake ([2]; 4 h): 17.05±8.86 %ID/g | Blood uptake ([2]; 4 h): 0.33±0.06 %ID/g | Brain uptake ([2]; 4 h): 0.29±0.06 %ID/g | Fat uptake ([2]; 4 h): 0.52±0.29 %ID/g | Heart uptake ([2]; 4 h): 1.78±0.33 %ID/g | Kidney (kid) uptake ([2]; 4 h): 19.99±2.88 %ID/g | Liver uptake ([2]; 4 h): 2.18±0.57 %ID/g | Lung uptake ([2]; 4 h): 12.03±1.61 %ID/g | Muscle (mm) uptake ([2]; 4 h): 0.70±0.18 %ID/g | Pancreas uptake ([2]; 4 h): 1.36±0.19 %ID/g | Sm. intestine uptake ([2]; 4 h): 4.15±0.69 %ID/g | Spleen uptake ([2]; 4 h): 0.24±0.04 %ID/g | Stomach uptake ([2]; 4 h): 8.19±0.97 %ID/g | Tumor uptake ([2]; 4 h): 19.3 %ID/g and 19.31±4.51 %ID/g | Tumor/Blood ratio ([2]; 4 h): 57.7±9.3 | Tumor/kid (kidney) ratio ([2]; 4 h): 1.0±0.1 | Tumor/mm (muscle) ratio ([2]; 4 h): 29.4±9.9 | Bladder uptake ([2]; 8 h): 7.43±7.72 %ID/g | Blood uptake ([2]; 8 h): 0.13±0.02 %ID/g | Brain uptake ([2]; 8 h): 0.24±0.06 %ID/g | Fat uptake ([2]; 8 h): 0.28±0.27 %ID/g | Heart uptake ([2]; 8 h): 0.65±0.10 %ID/g | Kidney (kid) uptake ([2]; 8 h): 8.14±1.15 %ID/g | Liver uptake ([2]; 8 h): 0.99±0.22 %ID/g | Lung uptake ([2]; 8 h): 4.64±0.58 %ID/g | Muscle (mm) uptake ([2]; 8 h): 0.21±0.05 %ID/g | Pancreas uptake ([2]; 8 h): 0.47±0.21 %ID/g | Sm. intestine uptake ([2]; 8 h): 1.98±0.14 %ID/g | Spleen uptake ([2]; 8 h): 0.18±0.02 %ID/g | Stomach uptake ([2]; 8 h): 4.02±0.53 %ID/g | Tumor uptake ([2]; 8 h): 16.74±1.58 %ID/g | Tumor/Blood ratio ([2]; 8 h): 129.6±18.8 | Tumor/kid (kidney) ratio ([2]; 8 h): 2.1 and 2.1 ± 0.3 and 2.1±0.26 | Tumor/mm (muscle) ratio ([2]; 8 h): 84.3±21.0 | Bladder uptake [2, 3]: 1.45±1.53 %ID/g | Blood uptake [2, 3]: 0.08±0.01 %ID/g | Brain uptake [2, 3]: 0.04±0.01 %ID/g | Fat uptake [2, 3]: 0.05±0.01 %ID/g | Heart uptake [2, 3]: 0.16±0.03 %ID/g | Kidney (kid) uptake [2, 3]: 1.82±0.39 %ID/g | Liver uptake [2, 3]: 0.55±0.08 %ID/g | Lung uptake [2, 3]: 0.77±0.14 %ID/g | Muscle (mm) uptake [2, 3]: 0.05±0.02 %ID/g | Pancreas uptake [2, 3]: 0.14±0.03 %ID/g | Sm. intestine uptake [2, 3]: 0.38±0.06 %ID/g | Spleen uptake [2, 3]: 0.14±0.02 %ID/g | Stomach uptake [2, 3]: 0.69±0.18 %ID/g | Tumor uptake [2, 3]: 2.39±0.24 %ID/g | Tumor/Blood ratio [2, 3]: 32.0±3.8 | Tumor/kid (kidney) ratio [2, 3]: 1.3±10.2 | Tumor/mm (muscle) ratio [2, 3]: 53.0±12.6 | Effect of co-injection of 200 nmole of 1 on tumor uptake (binding specificity) ([2]; 8 h and 24 h): blocked tumor uptake | All other tumor-to-organ ratios tested (other than kidney and lung) ([2]; 24 h): ≥ 10 | Bladder uptake ([2]; 24 h): 0.34±0.09 %ID/g | Brain uptake ([2]; 24 h): 0.13±0.02 %ID/g | Fat uptake ([2]; 24 h): 0.03±0.01 %ID/g | Heart uptake ([2]; 24 h): 0.12±0.03 %ID/g | Kidney (kid) uptake ([2]; 24 h): 0.90±0.12 %ID/g | Liver uptake ([2]; 24 h): 0.38±0.03 %ID/g | Lung uptake ([2]; 24 h): 1.27±0.38 %ID/g | Muscle (mm) uptake ([2]; 24 h): 0.02±0.01 %ID/g | Pancreas uptake ([2]; 24 h): 0.21±0.29 %ID/g | Sm. intestine uptake ([2]; 24 h): 0.47±0.03 %ID/g | Spleen uptake ([2]; 24 h): 0.09±0.01 %ID/g | Stomach uptake ([2]; 24 h): 0.65±0.04 %ID/g | Tumor uptake ([2]; 24 h): 6.2 %ID/g and 6.23±1.41 %ID/g | Tumor-to-lung ratio ([2]; 24 h): 4.9 | Tumor/Blood ratio ([2]; 24 h): 142.6±115.8 | Tumor/kid (kidney) ratio ([2]; 24 h): 7.1 and 7.1±2.5 | Bladder uptake [2, 4]: 0.45±0.50 %ID/g | Blood uptake [2, 4]: 0.01±0.08 %ID/g | Brain uptake [2, 4]: 0.02±0.01 %ID/g | Fat uptake [2, 4]: 0.01±0.01 %ID/g | Heart uptake [2, 4]: 0.08±0.01 %ID/g | Kidney (kid) uptake [2, 4]: 0.48±0.09 %ID/g | Liver uptake [2, 4]: 0.42±0.04 %ID/g | Lung uptake [2, 4]: 0.29±0.05 %ID/g | Muscle (mm) uptake [2, 4]: 0.04±0.06 %ID/g | Pancreas uptake [2, 4]: 0.07±0.02 %ID/g | Sm. intestine uptake [2, 4]: 0.19±0.05 %ID/g | Spleen uptake [2, 4]: 0.11±0.04 %ID/g | Stomach uptake [2, 4]: 0.29±0.04 %ID/g | Tumor uptake [2, 4]: 1.20±0.47 %ID/g | Tumor/Blood ratio [2, 4]: 27.1±26.7 | Tumor/kid (kidney) ratio [2, 4]: 2.4±0.4 | Tumor/mm (muscle) ratio [2, 4]: 49.0±28.7 | Calculated half-life, Bladder [2, 5]: 116.2 h | Calculated half-life, Blood [2, 5]: 2.153 h | Calculated half-life, Brain [2, 5]: 0.860 h | Calculated half-life, Fat [2, 5]: 4.666 h | Calculated half-life, Heart [2, 5]: 2.293 h | Calculated half-life, Kidney [2, 5]: 3.591 h | Calculated half-life, Liver [2, 5]: 3.375 h | Calculated half-life, Lung [2, 5]: 2.542 h | Calculated half-life, Muscle [2, 5]: 3.035 h | Calculated half-life, Pancreas [2, 5]: 2.330 h | Calculated half-life, SK-RC-52 tumor [2, 5]: 996.1 h | Calculated half-life, Small intestine [2, 5]: 3.322 h | Calculated half-life, Spleen [2, 5]: 4.008 h | Calculated half-life, Stomach [2, 5]: 3.397 h | Radiotracer uptake within liver ([2]; within 24 h): no significant radiotracer uptake within liver
